Literature values, collected in publication PMC9248236 (Nature chemical biology, 2022).

Tested on: IR
Conditions: competition binding assays, substitution at B24 of insulin

Substance	affinity for IR lower than native PheB24 human insulin
IleB24: human insulin analog with PheB24 substituted by isoleucine (literature)	2–3 fold
LeuB24: human insulin analog with PheB24 substituted by leucine (literature)	2–3 fold
